Data on 35 molecules can be found in ChEMBL document CHEMBL5727796, “Substituted purine derivative” (2020).

What is called IC50 is the midpoint of a concentration-inhibition curve.

The structures appear in SMILES notation.

This assay addresses T1, Toll-like receptor 7 (Homo sapiens, UniProt Q9NYK1).
T1 sequence (Q9NYK1 whole entry): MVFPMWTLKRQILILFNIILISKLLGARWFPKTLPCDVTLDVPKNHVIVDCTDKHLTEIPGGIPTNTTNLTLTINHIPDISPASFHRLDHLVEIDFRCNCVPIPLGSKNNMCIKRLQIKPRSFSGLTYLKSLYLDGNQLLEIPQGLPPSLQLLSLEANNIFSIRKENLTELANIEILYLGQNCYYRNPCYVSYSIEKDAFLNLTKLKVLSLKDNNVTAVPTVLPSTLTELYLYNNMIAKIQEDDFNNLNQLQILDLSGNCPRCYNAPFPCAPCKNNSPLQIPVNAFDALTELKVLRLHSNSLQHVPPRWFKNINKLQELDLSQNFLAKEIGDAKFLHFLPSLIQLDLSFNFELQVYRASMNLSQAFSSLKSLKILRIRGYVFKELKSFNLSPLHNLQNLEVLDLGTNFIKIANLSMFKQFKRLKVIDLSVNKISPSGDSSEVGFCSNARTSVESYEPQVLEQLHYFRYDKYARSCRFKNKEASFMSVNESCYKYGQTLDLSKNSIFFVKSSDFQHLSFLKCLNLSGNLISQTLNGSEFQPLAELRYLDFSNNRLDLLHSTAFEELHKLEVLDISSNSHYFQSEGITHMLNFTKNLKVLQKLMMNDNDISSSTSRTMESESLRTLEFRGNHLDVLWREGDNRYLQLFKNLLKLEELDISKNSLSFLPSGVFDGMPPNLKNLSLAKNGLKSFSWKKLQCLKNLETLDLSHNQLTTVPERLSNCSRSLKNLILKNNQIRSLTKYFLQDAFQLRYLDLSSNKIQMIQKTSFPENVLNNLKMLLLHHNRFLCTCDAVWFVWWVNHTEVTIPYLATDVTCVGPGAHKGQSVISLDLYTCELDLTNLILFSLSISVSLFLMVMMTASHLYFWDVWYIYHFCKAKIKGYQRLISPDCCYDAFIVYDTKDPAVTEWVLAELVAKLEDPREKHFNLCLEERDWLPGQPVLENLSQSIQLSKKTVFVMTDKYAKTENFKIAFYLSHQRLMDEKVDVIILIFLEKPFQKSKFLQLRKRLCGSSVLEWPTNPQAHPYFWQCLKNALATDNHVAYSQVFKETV
Nature of the assay: Inhibition of the Activation Assay: As human TLR7 expressing cell line, HEK293 cell line was bought from IMGENEX Corporation (TLR7/NF-ηB/SEAPorter™ HEK293 cell), which is human embryonic kidney cell line and stably expresses full-length human TLR7 gene and secreted alkaline phosphatase (SEAP) reporter gene under the transcriptional control of an NE-ηB response element. The TLR7/NF-ηB/SEAPorter™ HEK293 cell was cultivated with DMEM containing 10% fetal bovine serum (FBS) and 10 μg/mL blasticidin S at 37° C. in the presence of 5% CO2. Background: Reporter assays use an easily measured gene product as a stand-in for the process of interest.
Regarding `CCCCCc1nc(N)c2nc(-c3cncc(F)c3)n(Cc3ccccc3)c2n1`, the IC50 worked out at 9.5 µM.

Take `COc1nc(C)c2nc(-c3cncc(F)c3)n(Cc3ccc(C4CCN(C)C4)cc3)c2n1` (stereo not given): the IC50 was determined as 0.084 µM.

Regarding `CCOc1nc(C)c2nc(-c3cncc(F)c3)n(Cc3ccc(C4CN5CCC4CC5)cc3)c2n1` (stereo not given), the IC50 came out at 0.007 µM.

In the case of `CCCCOc1nc(N)c2nc(-c3ccc(OCCCN4CCOCC4)cc3)n(Cc3ccccc3)c2n1`, the IC50 stood at 4.1 µM.

On to `CCCCOc1nc(N)c2nc(-c3ccc(CN4CCOCC4)cc3)n(Cc3ccccc3)c2n1`, for which the IC50 is 8.2 µM.

As for `CCOc1nc(N)c2nc(-c3cncc(F)c3)n(Cc3ccc(CN4CCN5CCC4C5)cc3)c2n1` (stereo not given), the IC50 was determined as 0.051 µM.

In the case of `CCOc1nc(N)c2nc(-c3cncc(F)c3)n(Cc3ccc(OCCN4CCCC4)nc3)c2n1`, the IC50 stood at 0.62 µM.

As to `CCOc1nc(N)c2nc(-c3cncc(F)c3)n(Cc3ccccc3OC(F)F)c2n1`, the IC50 was 2.17 µM.

For `CCOc1nc(N)c2nc(-c3cncc(F)c3)n(Cc3ccc(OCCN(C)C)cc3)c2n1`, the IC50 is 0.099 µM.

Regarding `CCOc1nc(N)c2nc(-c3cncc(F)c3)n(Cc3ccc(OCCN(C)C)nc3)c2n1`, the 50% inhibitory concentration (IC50) stood at 0.81 µM.

On to `CCOc1nc(C)c2nc(-c3cncc(F)c3)n(Cc3ccc(CN4CCN5CCC4C5)cc3)c2n1` (stereo not given), for which the IC50 was 0.028 µM.

On to `CCOc1nc(N)c2nc(-c3cncc(F)c3)n(Cc3ccc(F)c(OCCN4CCCC4)c3)c2n1`, for which the 50% inhibitory concentration (IC50) turned out to be 0.62 µM.

With `CCOc1nc(N)c2nc(-c3cncc(F)c3)n(Cc3ccc(OCCCN(C)C)cc3)c2n1`, the IC50 came out at 0.089 µM.

With `COCCOc1nc(N)c2nc(-c3cncc(C)c3)n(Cc3ccccc3)c2n1`, the IC50 was determined as 9.1 µM.

Regarding `CCOc1nc(N)c2nc(-c3cncc(F)c3)n(Cc3cccc(OCCN(C)C)n3)c2n1`, the half-maximal inhibitory concentration (IC50) stood at 1.43 µM.

Consider `CCCCOc1nc(N)c2nc(-c3cccc(CN4CCOCC4)c3)n(Cc3ccccc3)c2n1`, for which the IC50 is 13.9 µM.

On to `CCOc1nc(N)c2nc(-c3cncc(F)c3)n(Cc3ccnc(OCCN(C)C)c3)c2n1`, for which the IC50 amounted to 1.8 µM.

`CCOc1nc(N)c2nc(-c3cncc(F)c3)n(Cc3ccc(C4CCN(C)C4)cc3)c2n1` (stereo not given): the IC50 worked out at 0.02 µM.

For the molecule `CCOc1nc(N)c2nc(-c3cncc(F)c3)n(Cc3cccc(OCCN(C)C)c3)c2n1`, the IC50 worked out at 0.077 µM.

Regarding `CCCCOc1nc(C)c2nc(-c3cncc(F)c3)n(Cc3ccc(CN(C)C)cc3)c2n1`, the IC50 worked out at 0.2 µM.

As to `CCOc1nc(N)c2nc(-c3cncc(F)c3)n(Cc3cc(CN(C)C)no3)c2n1`, the IC50 worked out at 1.3 µM.

`COc1nc(C)c2nc(-c3cncc(F)c3)n(Cc3ccc(C4=CCN(C(=O)OC(C)(C)C)CC4)cc3F)c2n1`: the IC50 turned out to be 0.291 µM.

`COc1nc(C)c2nc(-c3cnccn3)n(Cc3ccc(C4CN5CCC4CC5)cc3F)c2n1` (stereo not given): the IC50 was determined as 0.043 µM.

Consider `CCOc1nc(N)c2nc(-c3cncc(F)c3)n(Cc3cccc(OCCCN(C)C)c3)c2n1`, for which the IC50 was 0.06 µM.

As for `CCOc1nc(N)c2nc(-c3cncc(F)c3)n(Cc3ccc(OCCN4CCN(C)CC4)nc3)c2n1`, the 50% inhibitory concentration (IC50) was determined as 0.28 µM.

On to `CCOc1nc(N)c2nc(-c3cncc(F)c3)n(Cc3cc(OCCN(C)C)ccn3)c2n1`, for which the IC50 was found to be 5.8 µM.

Regarding `CCOc1nc(C)c2nc(-c3cncc(F)c3)n(Cc3ccc(CN4C[C@@H]5C[C@H]4CN5CC)nc3)c2n1`, the IC50 was 0.23 µM.

For the molecule `CCOc1nc(N)c2nc(-c3cncc(F)c3)n(Cc3ccc(OCCN4CCN(C)CC4)cc3)c2n1`, the IC50 was 0.067 µM.

`CCOc1nc(N)c2nc(-c3cncc(F)c3)n(Cc3ccc(F)c(OCCN(C)C)c3)c2n1`: the IC50 was 0.42 µM.

On to `COc1nc(C)c2nc(-c3cncc(F)c3)n(Cc3ccc(CC4CCN(C(=O)OC(C)(C)C)CC4)cc3F)c2n1`, for which the IC50 was 0.355 µM.

On to `CCOc1nc(C)c2nc(-c3cncc(F)c3)n(Cc3ccc(CN4CCN5CC[C@H]4C5)cc3)c2n1`, for which the half-inhibitory concentration (IC50) was 0.063 µM.

For `CCOc1nc(C)c2nc(-c3cncc(F)c3)n(Cc3cnn(C)c3)c2n1`, the IC50 is 2.68 µM.

In the case of `CCOc1nc(N)c2nc(-c3cncc(F)c3)n(Cc3ccc4c(c3)CN(C(=O)CN(C)C)C4)c2n1`, the IC50 is 0.46 µM.

With `COc1nc(C)c2nc(-c3cncc(F)c3)n(Cc3ccc([C@H]4CN5CCC4CC5)cc3)c2n1`, the 50% inhibitory concentration (IC50) was found to be 0.003 µM.

For `COc1nc(C)c2nc(-c3cccnc3)n(Cc3ccc(O[C@@H]4CN5CCC4CC5)cc3F)c2n1`, the IC50 is 0.07 µM.
